These are literature values, as cited in patent US20180311201A1, “ORAL PHARMACEUTICAL COMPOSITION COMPRISING OTILONIUM BROMIDE AND SIMETHICONE WITH CERTAIN BULK DENSITY AND IMPROVED DISSOLUTION CHARACTERISTICS” (priority 2015, published 2018).

In the case of `CCCCCCCCOc1ccccc1C(=O)Nc1ccc(C(=O)OCC[N+](C)(CC)CC)cc1.[Br-]` [Otilonium bromide, N,N-Diethyl-N-methyl-2-(4-[2-(octyloxy)benzamido]benzoyloxy)ethanaminium bromide], the “Solubility in dimethyl sulfoxide” value (dimethyl sulfoxide) is more than 25 mg/mL. Moreover, the Solubility in ethanol result (ethanol) is “soluble”. For the same molecule, the Solubility in water (water) is listed as 12 mg/mL.
